Results from article PMC3712534 (The FEBS journal, 2013).

Key:
PTP1B [1] = molecular target: T1, PTP1B (Homo sapiens, UniProt P18031); test: Inhibition of a panel of PTPs: PTP1B phosphatase activity, DiFMUP substrate; type: biochemical
T1 sequence (P18031 1-405): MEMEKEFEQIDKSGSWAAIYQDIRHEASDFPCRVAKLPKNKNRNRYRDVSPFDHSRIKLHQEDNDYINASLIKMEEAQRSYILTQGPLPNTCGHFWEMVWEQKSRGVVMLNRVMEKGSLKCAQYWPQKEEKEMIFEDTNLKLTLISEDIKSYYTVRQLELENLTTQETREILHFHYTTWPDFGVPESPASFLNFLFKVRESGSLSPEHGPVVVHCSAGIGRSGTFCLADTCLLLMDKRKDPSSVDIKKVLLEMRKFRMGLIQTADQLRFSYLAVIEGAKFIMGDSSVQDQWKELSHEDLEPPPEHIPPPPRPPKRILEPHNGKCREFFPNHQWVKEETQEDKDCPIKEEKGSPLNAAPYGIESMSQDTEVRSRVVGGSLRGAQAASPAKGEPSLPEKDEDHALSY

TC-PTP = molecular target: T2, TC-PTP (Homo sapiens, UniProt P17706); test: Inhibition of a panel of PTPs: TC-PTP; type: biochemical
T2 sequence (P17706 1-415): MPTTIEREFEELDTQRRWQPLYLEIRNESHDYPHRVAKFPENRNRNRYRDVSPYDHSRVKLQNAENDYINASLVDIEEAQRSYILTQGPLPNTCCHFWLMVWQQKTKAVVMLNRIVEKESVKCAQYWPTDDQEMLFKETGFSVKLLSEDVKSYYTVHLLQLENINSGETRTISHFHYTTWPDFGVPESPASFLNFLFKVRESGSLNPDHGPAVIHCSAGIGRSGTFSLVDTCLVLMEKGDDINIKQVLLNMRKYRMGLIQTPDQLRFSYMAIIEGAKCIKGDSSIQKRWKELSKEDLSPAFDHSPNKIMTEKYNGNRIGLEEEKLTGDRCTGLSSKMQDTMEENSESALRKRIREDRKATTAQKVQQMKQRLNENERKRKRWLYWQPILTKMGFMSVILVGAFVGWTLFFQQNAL

PTP-alpha = PTP-alpha (Homo sapiens, UniProt P18433); test: Inhibition of a panel of PTPs: PTP-alpha; type: biochemical
PTP-PEST = molecular target: T3, PTP-PEST (Homo sapiens, UniProt Q05209); test: Inhibition of a panel of PTPs: PTP-PEST; type: biochemical
T3 sequence (Q05209 1-780): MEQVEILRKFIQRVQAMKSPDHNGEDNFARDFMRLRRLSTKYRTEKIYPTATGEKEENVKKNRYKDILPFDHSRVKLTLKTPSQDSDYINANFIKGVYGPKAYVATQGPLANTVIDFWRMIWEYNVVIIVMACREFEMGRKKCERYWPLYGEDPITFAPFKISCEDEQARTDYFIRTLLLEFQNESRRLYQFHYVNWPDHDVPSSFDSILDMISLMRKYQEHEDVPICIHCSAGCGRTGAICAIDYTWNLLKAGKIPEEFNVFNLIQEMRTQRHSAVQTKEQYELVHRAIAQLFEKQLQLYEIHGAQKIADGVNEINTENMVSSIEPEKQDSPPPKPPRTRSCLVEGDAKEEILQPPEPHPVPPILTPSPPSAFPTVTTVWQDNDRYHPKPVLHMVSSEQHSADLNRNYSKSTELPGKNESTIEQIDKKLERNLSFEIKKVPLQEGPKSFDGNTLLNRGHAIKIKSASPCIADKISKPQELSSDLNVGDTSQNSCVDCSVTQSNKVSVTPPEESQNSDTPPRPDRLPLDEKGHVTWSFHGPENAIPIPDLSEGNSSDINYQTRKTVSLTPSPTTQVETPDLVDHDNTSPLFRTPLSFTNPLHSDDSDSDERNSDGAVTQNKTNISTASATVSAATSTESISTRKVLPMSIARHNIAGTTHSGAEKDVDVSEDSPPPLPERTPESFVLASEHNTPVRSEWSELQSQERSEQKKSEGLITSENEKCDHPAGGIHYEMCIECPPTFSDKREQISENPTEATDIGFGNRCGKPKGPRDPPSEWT

LAR = LAR (Homo sapiens, UniProt P10586); test: Inhibition of a panel of PTPs: LAR; type: biochemical
PTEN = PTEN (Homo sapiens, UniProt P60484); test: Inhibition of a panel of PTPs: PTEN; type: biochemical
DUSP4 = molecular target: T4, DUSP4 (Homo sapiens, UniProt Q13115); test: Inhibition of a panel of PTPs: DUSP4; type: biochemical
T4 sequence (Q13115 1-394): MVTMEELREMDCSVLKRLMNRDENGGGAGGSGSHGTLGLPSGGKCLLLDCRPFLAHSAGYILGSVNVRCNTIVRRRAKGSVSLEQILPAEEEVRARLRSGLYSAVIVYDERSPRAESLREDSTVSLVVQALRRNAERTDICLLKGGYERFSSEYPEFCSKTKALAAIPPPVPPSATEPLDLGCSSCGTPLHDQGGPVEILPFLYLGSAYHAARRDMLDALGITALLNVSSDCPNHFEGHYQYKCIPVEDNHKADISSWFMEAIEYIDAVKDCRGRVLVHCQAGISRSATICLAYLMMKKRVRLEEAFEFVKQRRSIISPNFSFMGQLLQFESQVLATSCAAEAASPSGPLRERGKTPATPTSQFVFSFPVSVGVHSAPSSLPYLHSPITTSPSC

DUSP10 = molecular target: T5, DUSP10 (Homo sapiens, UniProt Q9Y6W6); test: Inhibition of a panel of PTPs: DUSP10; type: biochemical
T5 sequence (Q9Y6W6 1-482): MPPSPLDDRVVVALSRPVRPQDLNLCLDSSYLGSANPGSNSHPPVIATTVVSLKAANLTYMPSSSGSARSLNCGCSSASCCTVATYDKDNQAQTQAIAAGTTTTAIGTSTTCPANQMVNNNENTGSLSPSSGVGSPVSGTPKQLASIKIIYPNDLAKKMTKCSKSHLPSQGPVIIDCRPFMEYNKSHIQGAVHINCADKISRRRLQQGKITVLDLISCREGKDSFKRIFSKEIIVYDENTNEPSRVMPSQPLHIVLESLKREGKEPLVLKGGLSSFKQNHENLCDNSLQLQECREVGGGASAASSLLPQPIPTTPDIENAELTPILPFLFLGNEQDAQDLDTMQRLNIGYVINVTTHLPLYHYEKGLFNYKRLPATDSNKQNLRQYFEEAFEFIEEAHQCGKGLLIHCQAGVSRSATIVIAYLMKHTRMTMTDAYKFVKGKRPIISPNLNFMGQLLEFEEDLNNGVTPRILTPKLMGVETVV

DUSP14 = molecular target: T6, DUSP14 (Homo sapiens, UniProt O95147); test: Inhibition of a panel of PTPs: DUSP14; type: biochemical
T6 sequence (O95147 1-198): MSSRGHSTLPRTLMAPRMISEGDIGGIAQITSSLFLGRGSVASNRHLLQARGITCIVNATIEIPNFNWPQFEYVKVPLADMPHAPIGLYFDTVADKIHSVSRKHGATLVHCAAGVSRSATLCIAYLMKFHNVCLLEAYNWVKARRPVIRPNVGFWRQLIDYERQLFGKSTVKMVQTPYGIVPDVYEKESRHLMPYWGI

DUSP16 = molecular target: T7, DUSP16 (Homo sapiens, UniProt Q9BY84); test: Inhibition of a panel of PTPs: DUSP16; type: biochemical
T7 sequence (Q9BY84 1-665): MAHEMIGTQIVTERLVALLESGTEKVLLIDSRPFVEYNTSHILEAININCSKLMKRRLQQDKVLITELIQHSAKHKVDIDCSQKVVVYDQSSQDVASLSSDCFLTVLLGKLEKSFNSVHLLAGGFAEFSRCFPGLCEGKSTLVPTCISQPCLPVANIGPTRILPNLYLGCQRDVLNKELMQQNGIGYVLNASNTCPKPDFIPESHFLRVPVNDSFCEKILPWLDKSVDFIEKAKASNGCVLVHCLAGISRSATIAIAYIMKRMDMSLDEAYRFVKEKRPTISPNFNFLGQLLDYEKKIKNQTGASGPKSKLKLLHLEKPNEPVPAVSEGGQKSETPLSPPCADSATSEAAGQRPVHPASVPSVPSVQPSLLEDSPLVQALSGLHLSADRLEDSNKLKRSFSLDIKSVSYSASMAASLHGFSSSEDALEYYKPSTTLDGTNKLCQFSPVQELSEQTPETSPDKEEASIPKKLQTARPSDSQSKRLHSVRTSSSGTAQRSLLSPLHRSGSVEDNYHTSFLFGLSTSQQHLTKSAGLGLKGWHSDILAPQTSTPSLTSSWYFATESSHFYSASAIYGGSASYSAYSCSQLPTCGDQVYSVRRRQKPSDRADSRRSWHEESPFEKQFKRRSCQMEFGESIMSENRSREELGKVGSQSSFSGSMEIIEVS

PTP1B [2] = molecular target: T1, PTP1B; test: Kinetics of time-dependent PTP1B inactivation, continuous DiFMUP assay; type: biochemical; conditions: catalase 0.5 μg/mL (1 unit per assay); PTP1B 5 nM; HEPES pH 7.0, 5 mM DTT
PTP1B [3] = molecular target: T1, PTP1B; test: Michaelis-Menten analysis of PTP1B with DiFMUP without and with inhibitor; type: biochemical; conditions: read-out: drop of maximum rate (Vmax) in the presence of inhibitor
IKK family members = conditions: cited from earlier work
RAW 264 macrophages = test: Anti-phosphotyrosine; type: cell-based; conditions: 1 mM, 30 minutes; in the presence and absence of LPS
PTP1B [4] = molecular target: T1, PTP1B; conditions: cited from earlier work

Chain of PTP-alpha (P18433 20-802): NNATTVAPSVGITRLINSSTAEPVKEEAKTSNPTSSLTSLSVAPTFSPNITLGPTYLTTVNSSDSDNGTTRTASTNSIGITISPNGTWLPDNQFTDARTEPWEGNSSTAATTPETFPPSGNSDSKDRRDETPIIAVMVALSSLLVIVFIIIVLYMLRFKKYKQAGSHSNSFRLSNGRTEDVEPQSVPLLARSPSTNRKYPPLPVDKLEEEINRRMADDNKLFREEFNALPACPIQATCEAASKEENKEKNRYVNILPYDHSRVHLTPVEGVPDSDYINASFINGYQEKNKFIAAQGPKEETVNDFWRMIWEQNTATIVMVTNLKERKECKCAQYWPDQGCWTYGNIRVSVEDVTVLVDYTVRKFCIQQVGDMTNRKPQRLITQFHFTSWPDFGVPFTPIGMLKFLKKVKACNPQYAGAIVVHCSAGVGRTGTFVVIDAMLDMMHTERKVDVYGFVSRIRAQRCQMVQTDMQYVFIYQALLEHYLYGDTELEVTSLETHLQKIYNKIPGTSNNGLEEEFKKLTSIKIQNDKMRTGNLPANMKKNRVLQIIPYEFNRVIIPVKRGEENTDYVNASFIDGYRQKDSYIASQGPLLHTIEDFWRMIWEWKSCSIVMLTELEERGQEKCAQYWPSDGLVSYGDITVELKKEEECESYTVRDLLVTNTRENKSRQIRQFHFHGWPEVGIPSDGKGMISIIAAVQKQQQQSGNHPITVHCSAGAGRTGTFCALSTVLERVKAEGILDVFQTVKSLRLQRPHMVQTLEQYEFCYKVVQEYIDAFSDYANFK
Chain of LAR (P10586 30-1907, species assumed): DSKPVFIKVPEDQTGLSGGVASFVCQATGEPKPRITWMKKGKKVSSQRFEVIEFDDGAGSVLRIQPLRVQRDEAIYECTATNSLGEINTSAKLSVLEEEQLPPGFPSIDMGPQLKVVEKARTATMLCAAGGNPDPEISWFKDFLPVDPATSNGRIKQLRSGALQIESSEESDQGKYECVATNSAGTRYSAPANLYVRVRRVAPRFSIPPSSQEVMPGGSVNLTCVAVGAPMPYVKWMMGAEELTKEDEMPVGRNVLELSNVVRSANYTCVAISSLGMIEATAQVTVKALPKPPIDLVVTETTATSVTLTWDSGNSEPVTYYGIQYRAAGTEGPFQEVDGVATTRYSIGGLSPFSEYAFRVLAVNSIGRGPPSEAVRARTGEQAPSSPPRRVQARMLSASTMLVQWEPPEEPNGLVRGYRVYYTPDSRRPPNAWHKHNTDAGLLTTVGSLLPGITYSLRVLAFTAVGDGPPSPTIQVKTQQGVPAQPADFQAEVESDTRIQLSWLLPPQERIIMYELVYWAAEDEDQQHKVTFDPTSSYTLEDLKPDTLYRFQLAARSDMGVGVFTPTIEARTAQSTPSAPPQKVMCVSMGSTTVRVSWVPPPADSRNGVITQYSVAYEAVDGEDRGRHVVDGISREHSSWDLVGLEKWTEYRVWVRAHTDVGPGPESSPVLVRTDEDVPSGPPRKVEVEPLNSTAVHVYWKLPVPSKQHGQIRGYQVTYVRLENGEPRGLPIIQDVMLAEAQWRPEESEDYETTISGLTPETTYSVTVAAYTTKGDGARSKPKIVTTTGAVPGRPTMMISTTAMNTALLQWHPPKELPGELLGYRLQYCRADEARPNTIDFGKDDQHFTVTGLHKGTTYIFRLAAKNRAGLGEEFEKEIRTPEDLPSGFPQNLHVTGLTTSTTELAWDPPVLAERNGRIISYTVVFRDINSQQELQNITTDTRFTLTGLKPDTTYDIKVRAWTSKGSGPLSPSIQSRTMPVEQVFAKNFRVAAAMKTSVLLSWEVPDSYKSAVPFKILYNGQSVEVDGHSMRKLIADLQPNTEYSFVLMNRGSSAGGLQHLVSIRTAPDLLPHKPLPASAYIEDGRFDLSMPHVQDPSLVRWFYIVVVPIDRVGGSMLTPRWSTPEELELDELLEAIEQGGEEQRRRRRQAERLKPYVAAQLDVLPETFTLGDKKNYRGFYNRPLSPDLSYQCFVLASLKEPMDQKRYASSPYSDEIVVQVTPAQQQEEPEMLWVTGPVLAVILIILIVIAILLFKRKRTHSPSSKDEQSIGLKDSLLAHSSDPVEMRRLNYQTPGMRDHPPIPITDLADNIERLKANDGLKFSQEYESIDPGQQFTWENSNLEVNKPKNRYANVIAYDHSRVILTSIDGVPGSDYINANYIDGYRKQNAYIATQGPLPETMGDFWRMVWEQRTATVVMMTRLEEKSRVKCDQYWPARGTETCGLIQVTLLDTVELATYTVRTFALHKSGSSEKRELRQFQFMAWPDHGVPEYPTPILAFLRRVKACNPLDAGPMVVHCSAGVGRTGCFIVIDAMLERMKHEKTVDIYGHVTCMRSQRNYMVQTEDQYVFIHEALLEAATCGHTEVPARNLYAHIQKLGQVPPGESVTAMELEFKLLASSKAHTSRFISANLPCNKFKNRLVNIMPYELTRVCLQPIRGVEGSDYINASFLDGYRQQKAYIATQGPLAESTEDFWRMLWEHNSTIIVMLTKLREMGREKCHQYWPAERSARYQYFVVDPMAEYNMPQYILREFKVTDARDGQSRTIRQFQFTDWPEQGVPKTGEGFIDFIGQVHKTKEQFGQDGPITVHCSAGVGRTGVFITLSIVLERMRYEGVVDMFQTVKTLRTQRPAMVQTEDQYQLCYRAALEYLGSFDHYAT
Chain of PTEN (P60484 whole entry, species assumed): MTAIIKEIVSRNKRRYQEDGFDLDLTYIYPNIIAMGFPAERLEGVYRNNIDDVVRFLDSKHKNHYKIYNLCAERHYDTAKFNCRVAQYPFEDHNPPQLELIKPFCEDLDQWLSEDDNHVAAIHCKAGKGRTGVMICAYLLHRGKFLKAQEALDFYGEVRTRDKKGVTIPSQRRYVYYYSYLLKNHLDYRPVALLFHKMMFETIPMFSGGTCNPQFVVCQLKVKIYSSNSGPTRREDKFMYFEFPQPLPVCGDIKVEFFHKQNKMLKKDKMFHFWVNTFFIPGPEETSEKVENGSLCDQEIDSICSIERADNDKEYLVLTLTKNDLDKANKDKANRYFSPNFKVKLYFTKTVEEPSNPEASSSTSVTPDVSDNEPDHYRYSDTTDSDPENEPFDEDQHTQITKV

SMILES: Cc1ccc(S(=O)(=O)/C=C/C#N)cc1 [BAY 11-7082]
- Ki (PTP1B [1]): 1 µM
- Ki (TC-PTP): 1.5 µM
- Ki (PTP-alpha): 2.3 µM
- Ki (PTP-PEST): 0.9 µM
- Ki (LAR): 2.5 µM
- Ki (PTEN): 100 µM
- Ki (DUSP4): 140 µM
- Ki (DUSP10): 150 µM
- Ki (DUSP14): 180 µM
- Ki (DUSP16): 125 µM
- rate of inactivation of PTP1B in the absence and presence of catalase (PTP1B [2]): the same
- inhibition at 2 µM (PTP1B [3]): ~50%
- inhibition of IKK family members in vitro (IKK family members): does not inhibit

SMILES: [Na+].[Na+].[Na+].[O]=[V]([O-])([O-])[O-] [sodium orthovanadate]
- extent of tyrosine phosphorylation (anti-pTyr immunoblot) (RAW 264 macrophages): enhanced

SMILES: CC(C)(C)c1ccc(S(=O)(=O)/C=C/C#N)cc1 [BAY 11-7085]
- Ki (PTP1B [1]): 36 µM
- Ki (TC-PTP): 39 µM
- Ki (PTP-alpha): 45 µM
- Ki (PTP-PEST): 40 µM
- Ki (LAR): 57 µM
- Ki (PTEN): 200 µM
- Ki (DUSP4): 160 µM
- Ki (DUSP10): 180 µM
- Ki (DUSP14): 210 µM
- Ki (DUSP16): 205 µM

SMILES: OO [H2O2, hydrogen peroxide]
- rate of oxidation of the enzyme (PTP1B [4]): 10 M⁻¹ s⁻¹
